Measurements reported in patent US20240092795A1, “PYRIDINE COMPOUNDS AS ALLOSTERIC SHP2 INHIBITORS” (Revolution Medicines, Inc., priority 2017, published 2024).

Biological target: SHP2 (Homo sapiens (Human), UniProt Q06124)
Assay: SHP2 Allosteric Inhibition Assay (DiFMUP prompt fluorescence)
Type: biochemical
Details: 0.2 nM SHP2 with 0.5 μM Activating Peptide 1 or 2, surrogate substrate DiFMUP, 25° C.; read-out: SHP2 Allosteric Biochem: IC50
Description: Without wishing to be bound by theory, SHP is allosterically activated through binding of bis-tyrosyl-phosphorylated peptides to its Src Homology 2 (SH2) domains. The latter activation step leads to the release of the auto-inhibitory interface of SHP2, which in turn renders the SHP2 protein tyrosine phosphatase (PTP) active and available for substrate recognition and reaction catalysis. The catalytic activity of SHP2 was monitored using the surrogate substrate DiFMUP in a prompt fluorescence assay format.
The phosphatase reactions were performed at room temperature in 96-well black polystyrene plate, flat bottom, non-binding surface (Corning, Cat #3650) using a final reaction volume of 100 μL and the following assay buffer conditions: 50 mM HEPES, pH 7.2, 100 mM NaCl, 0.5 mM EDTA, 0.05% P-20, 1 mM DTT.
The inhibition of SHP2 by compounds of the disclosure (concentrations varying from 0.00005-10 μM) was monitored using an assay in which 0.2 nM of SHP2 was incubated with 0.5 μM of Activating Peptide 1 (sequence: H2N-LN(pY)IDLDLV(dPEG8)LST (pY)ASINFQK-amide) or Activating Peptide 2 (sequence: H2N-LN(pY)AQLWHA(dPEG8) LTI(pY)ATIRRF-amide). After 30-60-minutes incubation at 25° C., the surrogate substrate DiFMUP (Invitrogen, Cat #D6567) was added to the reaction and activity was determined by a kinetic read using a microplate reader (Envision, Perkin-Elmer or Spectramax M5, Molecular Devices). The excitation and emission wavelengths were 340 nm and 450 nm, respectively. Initial rates were determined from a linear fit of the data, and the inhibitor dose response curves were analyzed using normalized ICso regression curve fitting with control based normalization.

| SMILES | IC50 |
| --- | --- |
| N[C@@H]1CCCC12CCN(c1cc(O)c(Sc3cccc(Cl)c3Cl)nc1CO)CC2 [Example 2, 5-[(1R)-1-amino-8-azaspiro[4.5]decan-8-yl]-2-[(2,3-dichlorophenyl)sulfanyl]-6-(hydroxymethyl)pyridin-3-ol] | 37 nM |
| N[C@@H]1CCCC12CCN(c1cnc(-c3cccc(Cl)c3Cl)c(O)c1)CC2 [Example 3, 5-[(1R)-1-amino-8-azaspiro[4.5]decan-8-yl]-2-(2,3-dichlorophenyl)pyridin-3-ol] | 740 nM |
| Cc1cc(N2CCC3(CCC[C@H]3N)CC2)c(CO)nc1-c1cccc(Cl)c1Cl [Example 4, {3-[(1R)-1-amino-8-azaspiro[4.5]decan-8-yl]-6-(2,3-dichlorophenyl)-5-methylpyridin-2-yl}methanol] | 69 nM |

The remaining compounds from weak to strong by IC50, led by results:

| IC50 | SMILES |
| --- | --- |
| 210 nM | N[C@@H]1CCCC12CCN(c1cc(O)c(-c3cccc(Cl)c3Cl)nc1CO)CC2 [Example 1, 5-[(4R)-4-amino-8-azaspiro[4.5]decan-8-yl]-2-(2,3-dichlorophenyl)-6-(hydroxymethyl)pyridin-3-ol] |
| 210 nM | Cc1cc(N2CCC3(CCC[C@H]3N)CC2)cnc1-c1cccc(Cl)c1Cl [Example 5, (1R)-8-[6-(2,3-dichlorophenyl)-5-methylpyridin-3-yl]-8-azaspiro[4.5]decan-1-amine] |
